Data published in US11786500B2, “Glutaminase inhibitor therapy” (Board of Regents, The University of Texas System, priority 2017, dated 2023).
“Also recorded” adds a separate entry of the source. Read-outs that look alike come from different tables or passages of the source.

Key:
[1] = tested on: OVCAR8; assay: Cell viability / proliferation assay (Cell Titer Glo, 72 h); type: cell-based
Method: Cells were allowed to settle and attach overnight. Cells plated in triplicate for each concentration and control examined. […] Cells were incubated with compound or relevant controls for 72 hours. On Day 4, 72 hours after treatment, cells were analyzed by Cell Titer Glo (PromegaG7573) per manufacturer's instructions. Plates were read in luminescence mode on a PheraStarFS plate reader. Data was collected, replicates were averaged, standard deviations calculated and analyzed through nonlinear regression analysis with four (4) parameters to generate IC50s for each cell line tested.

[2] = tested on: OVCAR429; assay: as above; type: cell-based
[3] = tested on: A2780; assay: as above; type: cell-based
Source text: (§1) Cells were allowed to settle and attach overnight.

[4] = tested on: IGROV1; assay: as above; type: cell-based
Source text: as §1

[5] = tested on: OVCAR4; assay: as above; type: cell-based
Source text: as §1

[6] = tested on: OVCAR420; assay: Analysis of glutathione levels (GSH-Glo); type: cell-based; settings: OVCAR420, 1 μM, 24 hours
Method: (§2) Analysis of Glutathione Levels: Cells were plated in 96-well Corning Costar 3603 at 10,000 cells/well on Day 0. Cells were allowed to settle and attach overnight. […] Cells were incubated with compound or relevant controls for 24 hours. On Day 2, 24 hours after treatment, cells were analyzed by GSH-Glo (PromegaV6912) per manufacturer's instructions. […] Duplicate wells were plated and then stained with crystal violet in order to correct for differences in cell growth as described below.
(§3) GLS-dependence is driven by addiction to glutamine-dependent, glutathione-mediated redox maintenance in OVCA responder cell lines. […] Consistent with this hypothesis, GLS-1 inhibition induced a significant decrease in intracellular glutathione and a concurrent increase in reactive oxygen species (FIGS. 7 and 8) in responder lines.

[7] = tested on: OVCAR429; assay: Analysis of glutathione levels (GSH-Glo); type: cell-based; settings: OVCAR429, 1 μM, 24 hours
Method: as §2, §3

[8] = tested on: OVCAR4; assay: Analysis of glutathione levels (GSH-Glo); type: cell-based; settings: OVCAR4 (non-responder), 24 hours
Method: as §2, §3

[9] = tested on: OVCAR8; assay: Analysis of glutathione levels (GSH-Glo); type: cell-based; settings: OVCAR8, 1 μM, 24 hours
Method: as §2, §3

[10] = tested on: responder cells OVCAR420, OVCAR429; assay: Analysis of reactive oxygen species production (CM-H2DCFDA, flow cytometry); type: cell-based; settings: 1 μM, 48 hours
Method: One day prior to the experiment, OVCAR-8 and OVCAR420 cells were seeded in 6 well dishes (250,000 cells per well). […] The following day, an allocated well was treated with hydrogen peroxide for 20-30 minutes as a positive control for ROS generation. All wells were then stained with CM-H2DCFDA (5 μM, Life Technologies) for 30 minutes at 37° C., washed with 1×PBS, harvested by trypsinization, and re-suspended in 400 μl phenol-free RPMI medium. Cells were strained through a […] cell strainer and analyzed using a flow cytometer (LSR Fortessa).
For each condition, calculation of mean fluorescence intensity allows for the comparison of ROS accumulation between control and treated samples. Shown are responder cells: (a) OVCAR420; (b) OVCAR429, with GFP-A on the x-axis, and count on the y-axis.

[11] = tested on: OVCAR8 and OVCAR420 cells; assay: DNA damage staining and quantification (γH2AX foci); type: cell-based; settings: 48 hours
Method: Cells were then fixed using 4% Paraformaldehyde and permeabilized using 0.5% TritonX100. Fixed cells were stained with Anti-γH2AX, rabbit (Bethyl IHC-00059) (1:500) for 2 h at 37 C. The secondary antibody used was Alexa Fluor 546 donkey anti-rabbit (Invitrogen A10040) (1:150) simultaneously with Hoechst 33342, Trihydrochloride, Trihydrate (Invitrogen, H3570) (1:1000) for 1 h at 37 C. DNA damage was measured as a γH2AX signal per nucleus using PerkinElmer High Content Screening System Operetta with the Harmony software. First, nuclei were selected using Hoechst staining. Then, single cells were gated based on nucleus size and shape. Apoptotic and mitotic cells were excluded based on maximum Hoechst intensity in the nucleus. DNA damage foci were identified within the gated nuclei using the “find spots in Alexa 546 channel” analysis block. Finally, the total intensity of Alexa 546 within all “spots” in the nucleus, or the total number of spots in the nucleus, averaged per cell, was calculated.
GLS-1 inhibition induces oxidative stress that leads to accumulation of DNA damage. […] Moreover, we observed an accumulation of γH2AX foci, a marker of DNA damage, and the likely cause of anti-proliferative effects observed upon GLS-1 inhibition (FIG. 11).

[12] = tested on: OVCAR8, OVCAR429, OVCAR4, and IGROV1 cells; assay: Metabolomics (LC-MS/MS metabolic profiling); type: cell-based; settings: 1 μM, 24 hours; muted or absent in non-responder lines
Method: OVCAR8 cells were plated at 3×10^6 cells per 10 cm dish and OVCAR429, IGROV1, and OVCAR4 were plated at 3.5×10^6 cells per 10 cm dish 24 hours (24 h) prior to treatment. […] On day 1 (d.1), 2 hours (2 h) prior to harvest, samples were washed with 5 mL media containing 10% dialyzed FBS. 10 mL of media was added to plates and plates were returned to the incubator for 2 h. Media was then aspirated from plates and 4 mL of 80% chilled MeOH (−80° C.) was immediately added. Plates were incubated at −80° C. for 15 minutes. Cells were then scraped with cell scraper to release cells while keeping plates on dry ice. The MeOH/cell lysate mixture was collected and transferred to conical tubes on dry ice. Tubes were centrifuged at full speed in 4° C. chilled centrifuge for 5 minutes. Supernatant was transferred to another set of conical tubes on dry ice by decanting. The remaining pellet was re-suspended in 500 μL of cold MeOH and the mixture was moved to a microcentrifuge tube. Microfuge tubes were spun at full speed for 5 minutes in 4° C. chilled microcentrifuge. […]
Differentially abundance analysis of metabolite levels was carried out using a moderated t-test function from Bioconductor's limma package (Smyth 2005). […] The normalization factor was calculated by first defining a vector, Nmed, to be the median peak area for each metabolite across a set of samples. […]

[13] = tested on: OVCAR420; assay: cells
Method: Cell culture media: All cells were grown in RPMI-1640 (Gibco11875-119) with 2 mM Glutamine+10% FBS (Gibco16000-044) unless otherwise noted.
Cells were plated in black, 96-well Corning Costar 3603 at densities to allow for Log phase growth throughout the experiment (see table below) on Day 0. Cells were allowed to settle and attach overnight. Cells plated in triplicate for each concentration and control examined. […] Cells were incubated with compound or relevant controls for 72 hours. On Day 4, 72 hours after treatment, cells were analyzed by Cell Titer Glo (PromegaG7573) per manufacturer's instructions. Plates were read in luminescence mode on a PheraStarFS plate reader. Data was collected, replicates were averaged, standard deviations calculated and analyzed through nonlinear regression analysis with four (4) parameters to generate IC50s for each cell line tested.

[14] = tested on: OVCAR-8 subcutaneous xenografts; assay: OVCAR-8 subcutaneous xenograft; type: in vivo, athymic mice; settings: 100 mpk, twice a day, oral gavage, three weeks
Method: OVCAR-8 cells were implanted subcutaneously into athymic mice and allowed to grow into an established tumor. Animals were then treated with compound 2, for three weeks (100 mpk, twice a day) by oral gavage.

[15] = tested on: SK-OV-3 cells; assay: Orthotopic model of ovarian cancer (SK-OV-3, intraperitoneal); type: in vivo, athymic nude mice; settings: day 21; compared to vehicle or paclitaxel alone
Method: SK-OV-3 cells were injected into the intraperitoneal cavity of athymic nude mice and allow to grow for 7 days. At day 7, animals were treated with the in vivo tool compound to inhibit GLS-1 and animals were monitored for clinical disease signs.

[16] = tested on: OVCAR-8 tumors; assay: Glutamate:glutamine ratio in OVCAR-8 tumor lysates (mass spec); type: in vivo; settings: dosed for 1, 7 or 21 days
Method: OVCAR-8 tumors were dosed for 1, 7 or 21 days and then harvested from animals. Tumor lysates were analyzed by mass spec for the presence of glutamine and glutamate.

[17] = tested on: ASNSlow HGSOC patient-derived xenograft; assay: ASNSlow HGSOC patient-derived xenograft (PDX) model; type: in vivo, NOD/SCID mice; settings: orally 100 mg/kg, BID for 39 days; p<0.0001 vs vehicle control
Method: The the anti-tumor effects of Compound 2 were tested in vivo in an ASNS^low HGSOC patient-derived xenograft (PDX) model using human tumor tissue that was identified through immunohistochemistry to be ASNS^low and characterized through histological phenotyping to be of a high-grade serous subtype, implanted in to NOD/SCID mice.
Compound 2 inhibits tumor growth of an ASNS^low PDX xenograft as a single agent in NOD/SCID mice (FIG. 23(b)). In this experiment, Compound 2, administered orally at a dose of 100 mg/kg, BID for 39 days inhibited tumor growth (TGI=50%, p<0.0001 for tumor volumes after treatment with Compound 2 vs vehicle control).

Row | SMILES | IC50 ([1]; Homo sapiens, OVCAR-8, OVCAR8, 72 h, read-out: IC50, viability (relative to DMSO)) [nM] | response, 72 hour viability ([1]; OVCAR8) | IC50 [2] [nM] | response, 72 hour viability ([2]; OVCAR429) | IC50 ([2]; OVCAR429, 72 h, read-out: IC50, viability (relative to DMSO)) [nM] | response, viability [3] | response, 72 hour viability [4] | response, viability [5] | GSH levels [6] | GSH levels [7] | GSH levels [8] | GSH levels [9] | accumulation of intracellular ROS [10] | DNA damage (γH2AX foci per nuclei) [11] | changes in metabolite levels [12] | IC50 [13] [nM] | tumor growth (tumor volume) [14] | combined nodule weight per animal [15] | glutamate:glutamine ratio in tumors [16] | TGI (tumor growth inhibition) [17] [%]
1 | O=C(Cc1cccc(OC(F)(F)F)c1)Nc1ccc(CCCCc2nnc(NC(=O)Cc3ccccn3)s2)nn1 [Compound 1, 2-(pyridin-2-yl)-N-{5-[4-(6-{2-[3-(trifluoromethoxy)phenyl]acetamido}pyridazin-3-yl)butyl]-1,3,4-thiadiazol-2-yl}acetamide] | 13 | nM sensitivity | 76 | nM sensitivity | 59 | no response | resistant | resistant; also recorded: no response | significantly decreased | significantly decreased | does not show a significant decrease | significantly decreased | induces an accumulation of ROS | induces DNA damage | decrease in TCA cycle activity | 59 |  |  |  | 
2 | CNC(=O)c1cn(C[C@H](F)CCc2ccc(NC(=O)Cc3cc(OC4CC(F)(F)C4)cc(C)n3)nn2)nn1 [Compound 2, (R)-1-(4-(6-(2-(4-(3,3-difluorocyclobutoxy)-6-methylpyridin-2-yl)acetamido)pyridazin-3-yl)-2-fluorobutyl)-N-methyl-1H-1,2,3-triazole-4-carboxamide] |  |  |  |  |  |  |  |  |  |  |  |  |  |  |  |  | significant tumor growth inhibition | robust reduction | altered glutamine metabolism | 50
